Each block holds one compound with its values, some of them ahead of it. The source made the active and inactive calls. The rule behind the calls is not given here.
Tests used:
[1] = molecular target: T1, Proto-oncogene tyrosine-protein kinase receptor Ret (Homo sapiens, UniProt P07949); assay: Binding affinity to RET (unknown origin) assessed as dissociation constant in presence of ATP by FRET based Z'-Lyte assay
BaF3 [2] = assay: Antiproliferative activity against mouse BaF3 cells expressing CCDC6-RET incubated for 72 hrs by CCK8 assay; format: functional, cell-based; conditions: BaF3, 72 h
BaF3 [3] = assay: Antiproliferative activity against mouse BaF3 cells expressing CCDC6-RET-V804M incubated for 72 hrs by CCK8 assay; format: functional, cell-based; conditions: BaF3, 72 h
BaF3 [4] = assay: Antiproliferative activity against mouse BaF3 cells expressing CCDC6-RET-G810C incubated for 72 hrs by CCK8 assay; format: functional, cell-based; conditions: BaF3, 72 h
BaF3 [5] = assay: Antiproliferative activity against mouse BaF3 cells expressing CCDC6-RET-G810R incubated for 72 hrs by CCK8 assay; format: functional, cell-based; conditions: BaF3, 72 h
BaF3 [6] = assay: cells; conditions: Mus musculus, BaF3, 72 h
Description: Antiproliferative activity against mouse BaF3 cells incubated for 72 hrs by CCK8 assay

[7] = molecular target: T1, Proto-oncogene tyrosine-protein kinase receptor Ret; assay: Inhibition of RET (unknown origin) by DiscoverX KINOMEscan assay
[8] = molecular target: Proto-oncogene tyrosine-protein kinase receptor Ret (Homo sapiens, UniProt P07949, V804M); assay: Inhibition of RET V804M mutant (unknown origin) by DiscoverX KINOMEscan assay
[9] = molecular target: Macrophage colony-stimulating factor 1 receptor (Homo sapiens, UniProt P07333); assay: Inhibition of CSF1R (unknown origin) by DiscoverX KINOMEscan assay
Sequence of Macrophage colony-stimulating factor 1 receptor (P07333 whole entry, the tested form may be a part): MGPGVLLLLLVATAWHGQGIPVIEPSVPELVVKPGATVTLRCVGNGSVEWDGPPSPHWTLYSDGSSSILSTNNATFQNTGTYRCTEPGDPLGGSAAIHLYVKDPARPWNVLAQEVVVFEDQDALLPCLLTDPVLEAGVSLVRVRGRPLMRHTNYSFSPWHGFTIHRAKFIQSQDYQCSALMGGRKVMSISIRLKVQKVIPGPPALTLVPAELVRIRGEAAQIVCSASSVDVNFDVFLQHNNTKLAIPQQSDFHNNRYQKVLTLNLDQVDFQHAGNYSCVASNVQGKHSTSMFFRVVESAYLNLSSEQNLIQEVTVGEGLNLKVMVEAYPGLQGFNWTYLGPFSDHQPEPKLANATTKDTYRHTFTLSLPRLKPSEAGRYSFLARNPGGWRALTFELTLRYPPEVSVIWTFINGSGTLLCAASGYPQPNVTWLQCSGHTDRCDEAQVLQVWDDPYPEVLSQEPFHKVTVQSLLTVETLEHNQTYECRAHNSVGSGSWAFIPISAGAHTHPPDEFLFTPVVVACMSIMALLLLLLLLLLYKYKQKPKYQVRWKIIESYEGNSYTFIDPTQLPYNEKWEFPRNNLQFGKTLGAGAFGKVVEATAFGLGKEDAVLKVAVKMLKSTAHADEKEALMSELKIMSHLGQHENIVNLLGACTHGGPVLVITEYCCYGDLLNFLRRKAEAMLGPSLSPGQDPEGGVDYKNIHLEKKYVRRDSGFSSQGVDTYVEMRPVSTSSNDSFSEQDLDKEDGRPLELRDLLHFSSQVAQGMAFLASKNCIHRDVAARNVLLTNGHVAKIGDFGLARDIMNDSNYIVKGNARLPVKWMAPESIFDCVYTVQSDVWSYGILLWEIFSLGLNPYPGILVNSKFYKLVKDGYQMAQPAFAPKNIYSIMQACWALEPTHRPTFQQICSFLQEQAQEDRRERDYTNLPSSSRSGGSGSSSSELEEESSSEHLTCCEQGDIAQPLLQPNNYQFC

[10] = molecular target: Epithelial discoidin domain-containing receptor 1 (Homo sapiens, UniProt Q08345); assay: Inhibition of DDR1 (unknown origin) by DiscoverX KINOMEscan assay
[11] = molecular target: Mast/stem cell growth factor receptor Kit (Homo sapiens, UniProt P10721); assay: Inhibition of KIT (unknown origin) by DiscoverX KINOMEscan assay
[12] = molecular target: Platelet-derived growth factor receptor beta (Homo sapiens, UniProt P09619); assay: Inhibition of PDGFRB (unknown origin) by DiscoverX KINOMEscan assay
[13] = molecular target: Vascular endothelial growth factor receptor 2 (Homo sapiens, UniProt P35968); assay: Inhibition of VEGFR2 (unknown origin) by DiscoverX KINOMEscan assay
Sequence of Vascular endothelial growth factor receptor 2 (P35968 whole entry): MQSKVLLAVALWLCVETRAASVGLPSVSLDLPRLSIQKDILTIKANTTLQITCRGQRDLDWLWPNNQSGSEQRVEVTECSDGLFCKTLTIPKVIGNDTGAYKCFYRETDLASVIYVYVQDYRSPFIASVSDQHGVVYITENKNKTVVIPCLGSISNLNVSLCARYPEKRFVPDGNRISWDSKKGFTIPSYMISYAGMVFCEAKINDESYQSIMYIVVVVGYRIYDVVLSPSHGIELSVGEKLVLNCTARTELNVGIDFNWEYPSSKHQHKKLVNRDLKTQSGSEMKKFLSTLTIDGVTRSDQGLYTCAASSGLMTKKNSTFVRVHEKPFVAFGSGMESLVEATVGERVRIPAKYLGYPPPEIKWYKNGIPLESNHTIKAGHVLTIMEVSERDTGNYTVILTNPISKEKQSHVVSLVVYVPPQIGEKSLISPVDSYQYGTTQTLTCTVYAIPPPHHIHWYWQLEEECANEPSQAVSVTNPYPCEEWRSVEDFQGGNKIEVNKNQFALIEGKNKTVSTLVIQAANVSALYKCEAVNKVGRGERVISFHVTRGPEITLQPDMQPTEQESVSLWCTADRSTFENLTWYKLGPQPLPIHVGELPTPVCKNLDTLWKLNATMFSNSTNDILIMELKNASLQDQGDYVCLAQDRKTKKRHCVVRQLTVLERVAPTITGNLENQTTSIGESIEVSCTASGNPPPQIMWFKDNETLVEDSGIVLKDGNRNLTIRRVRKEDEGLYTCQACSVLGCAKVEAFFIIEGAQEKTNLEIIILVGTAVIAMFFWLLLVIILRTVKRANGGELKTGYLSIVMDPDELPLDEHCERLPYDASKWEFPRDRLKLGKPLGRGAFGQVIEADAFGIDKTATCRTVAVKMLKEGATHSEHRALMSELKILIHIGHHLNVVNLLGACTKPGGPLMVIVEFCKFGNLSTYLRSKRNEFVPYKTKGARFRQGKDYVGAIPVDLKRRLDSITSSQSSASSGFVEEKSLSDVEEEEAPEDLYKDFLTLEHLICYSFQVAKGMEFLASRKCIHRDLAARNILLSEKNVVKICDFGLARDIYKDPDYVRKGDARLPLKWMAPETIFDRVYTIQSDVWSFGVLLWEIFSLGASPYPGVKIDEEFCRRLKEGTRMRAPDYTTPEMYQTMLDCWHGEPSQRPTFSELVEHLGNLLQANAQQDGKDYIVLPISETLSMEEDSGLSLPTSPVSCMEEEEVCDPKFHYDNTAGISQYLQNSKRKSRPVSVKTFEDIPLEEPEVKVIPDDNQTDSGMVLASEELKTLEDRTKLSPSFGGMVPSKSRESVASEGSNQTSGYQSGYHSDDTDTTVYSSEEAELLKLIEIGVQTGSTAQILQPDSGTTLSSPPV

[14] = molecular target: Epidermal growth factor receptor (Homo sapiens, UniProt P00533); assay: Inhibition of EGFR (unknown origin) by DiscoverX KINOMEscan assay
[15] = molecular target: Proto-oncogene tyrosine-protein kinase receptor Ret (Mus musculus) (UniProt P35546); assay: Inhibition of RET signalling pathway in mouse BaF3 cells harboring CCDC6-RET assessed as suppression of RET phosphorylation at 33.3 nM incubated for 4 hrs by Western blot analysis; format: cell-based
Sequence of Proto-oncogene tyrosine-protein kinase receptor Ret (Mus musculus) (P35546 whole entry): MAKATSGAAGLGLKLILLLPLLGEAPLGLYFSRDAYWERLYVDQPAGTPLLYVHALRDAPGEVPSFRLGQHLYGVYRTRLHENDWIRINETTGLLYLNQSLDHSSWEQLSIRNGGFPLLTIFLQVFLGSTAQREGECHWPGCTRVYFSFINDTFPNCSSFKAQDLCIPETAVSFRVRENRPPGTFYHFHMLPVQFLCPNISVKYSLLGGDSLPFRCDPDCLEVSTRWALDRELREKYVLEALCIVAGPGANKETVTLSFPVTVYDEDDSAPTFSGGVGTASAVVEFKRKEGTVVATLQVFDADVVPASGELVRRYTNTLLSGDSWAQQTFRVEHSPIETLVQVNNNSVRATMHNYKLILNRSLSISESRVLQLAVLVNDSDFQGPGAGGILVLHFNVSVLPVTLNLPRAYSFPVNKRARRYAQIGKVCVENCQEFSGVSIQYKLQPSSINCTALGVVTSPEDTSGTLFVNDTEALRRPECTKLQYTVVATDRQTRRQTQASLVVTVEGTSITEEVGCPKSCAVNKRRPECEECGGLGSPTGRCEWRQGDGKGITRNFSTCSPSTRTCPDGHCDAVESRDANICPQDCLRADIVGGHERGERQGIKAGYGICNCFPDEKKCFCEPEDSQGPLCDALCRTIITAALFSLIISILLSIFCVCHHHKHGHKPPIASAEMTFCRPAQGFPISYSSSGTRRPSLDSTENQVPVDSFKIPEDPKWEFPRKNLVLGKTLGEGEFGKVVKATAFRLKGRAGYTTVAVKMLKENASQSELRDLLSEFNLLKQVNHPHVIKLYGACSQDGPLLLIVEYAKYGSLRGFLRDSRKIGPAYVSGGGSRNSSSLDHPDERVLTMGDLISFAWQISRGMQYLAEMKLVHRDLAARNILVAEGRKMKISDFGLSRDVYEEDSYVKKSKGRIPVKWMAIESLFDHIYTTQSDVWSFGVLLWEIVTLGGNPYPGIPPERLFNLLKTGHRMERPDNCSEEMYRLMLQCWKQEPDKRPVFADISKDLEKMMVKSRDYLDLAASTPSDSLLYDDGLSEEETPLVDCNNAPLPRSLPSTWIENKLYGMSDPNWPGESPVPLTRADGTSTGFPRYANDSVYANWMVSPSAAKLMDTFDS

[16] = molecular target: Proto-oncogene tyrosine-protein kinase receptor Ret (Mus musculus) (UniProt P35546); assay: Inhibition of RET signalling pathway in mouse BaF3 cells harboring CCDC6-RET-V804M mutant assessed as suppression of RET phosphorylation at 33.3 nM incubated for 4 hrs by Western blot analysis; format: cell-based
[17] = molecular target: Proto-oncogene tyrosine-protein kinase receptor Ret (Mus musculus) (UniProt P35546); assay: Inhibition of RET signalling pathway in mouse BaF3 cells harboring CCDC6-RET-G810C mutant assessed as suppression of RET phosphorylation at 33.3 nM incubated for 4 hrs by Western blot analysis; format: cell-based
[18] = molecular target: Proto-oncogene tyrosine-protein kinase receptor Ret (Mus musculus) (UniProt P35546); assay: Inhibition of RET signalling pathway in mouse BaF3 cells harboring CCDC6-RET assessed as suppression of SHC activation at 33.3 nM incubated for 4 hrs by Western blot analysis; format: cell-based
[19] = molecular target: Proto-oncogene tyrosine-protein kinase receptor Ret (Mus musculus) (UniProt P35546); assay: Inhibition of RET signalling pathway in mouse BaF3 cells harboring CCDC6-RET-V804M mutant assessed as suppression of SHC activation at 33.3 nM incubated for 4 hrs by Western blot analysis; format: cell-based
[20] = molecular target: Proto-oncogene tyrosine-protein kinase receptor Ret (Mus musculus) (UniProt P35546); assay: Inhibition of RET signalling pathway in mouse BaF3 cells harboring CCDC6-RET-G810C mutant assessed as suppression of SHC activation at 33.3 nM incubated for 4 hrs by Western blot analysis; format: cell-based
[21] = molecular target: Proto-oncogene tyrosine-protein kinase receptor Ret (Mus musculus) (UniProt P35546); assay: Inhibition of RET signalling pathway in mouse BaF3 cells harboring CCDC6-RET-G810C mutant assessed as suppression of RET activation incubated for 4 hrs by Western blot analysis; format: cell-based; conditions: dose <= 300.0 nM
[22] = molecular target: Proto-oncogene tyrosine-protein kinase receptor Ret (Mus musculus) (UniProt P35546); assay: Inhibition of RET signalling pathway in mouse BaF3 cells harboring CCDC6-RET-G810C mutant assessed as suppression of SHC activation incubated for 4 hrs by Western blot analysis; format: cell-based; conditions: dose <= 300.0 nM
[23] = AUC (0 to infinity) in Sprague-Dawley rat at 5 mg/kg, iv; format: ADME, organism-based; set-up: dose 5 mg/kg, route iv; conditions: in vivo
[24] = Cmax in Sprague-Dawley rat at 5 mg/kg, iv; format: ADME, organism-based; set-up: dose 5 mg/kg, route iv; conditions: in vivo
[25] = Half life in Sprague-Dawley rat at 5 mg/kg, iv; format: ADME, organism-based; conditions: in vivo
[26] = AUC (0 to infinity) in fasted Sprague-Dawley rat at 25 mg/kg, po; format: ADME, organism-based; set-up: dose 25 mg/kg, route po; conditions: in vivo
[27] = Cmax in fasted Sprague-Dawley rat at 25 mg/kg, po; format: ADME, organism-based; set-up: dose 25 mg/kg, route po; conditions: in vivo
[28] = Tmax in fasted Sprague-Dawley rat at 25 mg/kg, po; format: ADME, organism-based; conditions: in vivo
[29] = Half life in fasted Sprague-Dawley rat at 25 mg/kg, po; format: ADME, organism-based; conditions: in vivo
[30] = Bioavailability in fasted Sprague-Dawley rat at 25 mg/kg, po; format: ADME, organism-based; conditions: in vivo

T1 sequence (P07949 whole entry): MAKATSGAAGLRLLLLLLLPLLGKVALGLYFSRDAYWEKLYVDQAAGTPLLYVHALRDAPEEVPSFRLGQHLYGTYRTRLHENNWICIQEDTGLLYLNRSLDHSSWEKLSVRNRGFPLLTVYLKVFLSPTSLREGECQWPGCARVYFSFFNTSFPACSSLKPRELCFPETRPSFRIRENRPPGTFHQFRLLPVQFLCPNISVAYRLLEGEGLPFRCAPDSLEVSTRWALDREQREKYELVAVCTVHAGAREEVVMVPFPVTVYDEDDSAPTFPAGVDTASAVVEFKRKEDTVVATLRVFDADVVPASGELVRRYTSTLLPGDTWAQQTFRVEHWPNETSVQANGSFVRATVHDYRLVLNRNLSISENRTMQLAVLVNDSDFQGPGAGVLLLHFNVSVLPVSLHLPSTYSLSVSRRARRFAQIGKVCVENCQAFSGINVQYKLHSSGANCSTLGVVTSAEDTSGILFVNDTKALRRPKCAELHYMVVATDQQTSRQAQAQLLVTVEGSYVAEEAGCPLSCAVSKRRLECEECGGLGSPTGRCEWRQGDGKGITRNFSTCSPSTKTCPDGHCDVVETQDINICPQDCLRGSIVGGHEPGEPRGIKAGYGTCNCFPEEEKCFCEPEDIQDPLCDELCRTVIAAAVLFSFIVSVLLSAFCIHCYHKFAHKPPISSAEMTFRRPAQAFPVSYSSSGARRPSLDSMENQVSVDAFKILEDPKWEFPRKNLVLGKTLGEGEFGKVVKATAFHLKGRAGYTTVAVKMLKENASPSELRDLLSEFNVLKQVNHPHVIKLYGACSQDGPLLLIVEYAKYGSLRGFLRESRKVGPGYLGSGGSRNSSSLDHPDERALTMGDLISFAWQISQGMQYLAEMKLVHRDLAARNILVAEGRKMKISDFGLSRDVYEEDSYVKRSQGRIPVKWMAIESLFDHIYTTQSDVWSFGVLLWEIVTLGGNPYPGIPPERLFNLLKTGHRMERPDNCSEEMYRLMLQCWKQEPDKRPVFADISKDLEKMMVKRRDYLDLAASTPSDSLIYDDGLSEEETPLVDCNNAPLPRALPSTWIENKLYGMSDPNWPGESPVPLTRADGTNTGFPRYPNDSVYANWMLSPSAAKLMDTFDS

Kd [1]: 0.0315 µM
IC50 (BaF3 [2]): 0.404 µM
IC50 (BaF3 [3]): 0.491 µM
IC50 (BaF3 [4]): 0.802 µM
IC50 (BaF3 [5]): 0.716 µM
IC50 (BaF3 [6]): 0.772 µM
SMILES: CC(C)(C)c1cc(NC(=O)Nc2ccc(-c3c[nH]c(-c4ccc(OCCN5CCOCC5)cc4Cl)n3)cc2)no1

Kd [1]: 0.0032 µM
IC50 (BaF3 [2]): 0.0079 µM
IC50 (BaF3 [3]): 0.0085 µM
IC50 (BaF3 [4]): 0.103 µM
IC50 (BaF3 [5]): 0.842 µM
IC50 (BaF3 [6]): 1.95 µM
SMILES: CN(C)CCOc1ccc(-c2cc(-c3ccc(NC(=O)Nc4cc(C(C)(C)C)on4)cc3)n[nH]2)cc1

Kd [1]: 0.018 µM
IC50 (BaF3 [2]): 0.0356 µM
IC50 (BaF3 [3]): 0.0339 µM
IC50 (BaF3 [4]): 0.196 µM
IC50 (BaF3 [5]): 2.02 µM
IC50 (BaF3 [6]): > 10 µM
SMILES: Cc1cc(NC(=O)Nc2cc(C(C)(C)C)on2)ccc1-c1cc(-c2ccc(OCCN3CCOCC3)cc2)[nH]n1

Kd [1]: 0.0043 µM
IC50 (BaF3 [2]): 0.0093 µM
IC50 (BaF3 [3]): 0.0094 µM
IC50 (BaF3 [4]): 0.0898 µM
IC50 (BaF3 [5]): 0.549 µM
IC50 [7]: 0.0161 µM
IC50 [8]: 0.0154 µM
IC50 [9]: 0.033 µM
IC50 [10]: 0.009 µM
IC50 [11]: 0.0216 µM
IC50 [12]: 0.0244 µM
IC50 [13]: 0.331 µM
IC50 [14]: > 1 µM
inhibition [15]: Active
inhibition [16]: Active
inhibition [17]: Active
inhibition [18]: Active
inhibition [19]: Active
inhibition [20]: Active
inhibition [21]: Dose-Dependent Effect
inhibition [22]: Dose-Dependent Effect
AUC(0-inf) [23]: 15600 ng·h/mL
Cmax [24]: 10700 ng/mL
half-life [25]: 3.3 h
AUC(0-inf) [26]: 20500 ng·h/mL
Cmax [27]: 1250 ng/mL
Tmax [28]: 6 h
half-life [29]: 6.9 h
bioavailability [30]: 23.6%
IC50 (BaF3 [6]): 1.23 µM
SMILES: CC(C)(C)c1cc(NC(=O)Nc2ccc(-c3cc(-c4ccc(OCCN5CCOCC5)cc4)[nH]n3)cc2)no1

Kd [1]: 0.0094 µM
IC50 (BaF3 [2]): 0.0204 µM
IC50 (BaF3 [3]): 0.0279 µM
IC50 (BaF3 [4]): 0.159 µM
IC50 (BaF3 [5]): > 10 µM
IC50 (BaF3 [6]): > 10 µM
SMILES: CC(C)(C)c1cc(NC(=O)Nc2ccc(-c3cc(-c4ccc(OCCN5CCOCC5)c(Cl)c4)[nH]n3)cc2)no1

Kd [1]: 0.0056 µM
IC50 (BaF3 [2]): 0.0071 µM
IC50 (BaF3 [3]): 0.0052 µM
IC50 (BaF3 [4]): 0.139 µM
IC50 (BaF3 [5]): 0.23 µM
IC50 (BaF3 [6]): 0.184 µM
SMILES: COc1cc(-c2cc(-c3ccc(NC(=O)Nc4cc(C(C)(C)C(F)(F)F)on4)cc3)n[nH]2)ccc1OCCN1CCOCC1

IC50 (BaF3 [2]): 0.005 µM
IC50 (BaF3 [3]): 0.0041 µM
IC50 (BaF3 [4]): 0.114 µM
IC50 (BaF3 [5]): 0.358 µM
IC50 (BaF3 [6]): 1.04 µM
SMILES: CO[C@]1(C(=O)N[C@@H](C)c2ccc(-n3cc(F)cn3)nc2)CC[C@@H](c2nc(C)cc(Nc3cc(C)[nH]n3)n2)CC1

Kd [1]: 0.032 µM
IC50 (BaF3 [2]): 0.387 µM
IC50 (BaF3 [3]): 0.437 µM
IC50 (BaF3 [4]): 1.13 µM
IC50 (BaF3 [5]): 0.984 µM
IC50 (BaF3 [6]): 0.625 µM
SMILES: COc1cc(NC(=O)Nc2cc(C(C)(C)C)on2)ccc1-c1cc(-c2ccc(OCCN3CCOCC3)cc2)[nH]n1

Kd [1]: 0.0265 µM
IC50 (BaF3 [2]): 0.585 µM
IC50 (BaF3 [3]): 1.18 µM
IC50 (BaF3 [4]): 1.83 µM
IC50 (BaF3 [5]): 1.07 µM
IC50 (BaF3 [6]): 1.09 µM
SMILES: CC(C)(C)c1cc(NC(=O)Nc2ccc(-c3cn(-c4ccc(OCCN5CCOCC5)cc4Cl)nn3)cc2)no1

Kd [1]: 0.0083 µM
IC50 (BaF3 [2]): 0.0179 µM
IC50 (BaF3 [3]): 0.0181 µM
IC50 (BaF3 [4]): 0.412 µM
IC50 (BaF3 [5]): > 10 µM
IC50 (BaF3 [6]): > 10 µM
SMILES: CC(C)(C)c1cc(NC(=O)Nc2ccc(-c3cc(-c4ccc(OCCN5CCOCC5)cc4F)[nH]n3)cc2)no1

Kd [1]: 0.011 µM
IC50 (BaF3 [2]): 0.0362 µM
IC50 (BaF3 [3]): 0.0355 µM
IC50 (BaF3 [4]): 0.533 µM
IC50 (BaF3 [5]): 0.626 µM
IC50 (BaF3 [6]): > 10 µM
SMILES: CC(C)(C)c1cc(NC(=O)Nc2ccc(-c3cc(-c4ccc(OCCN5CCOCC5)cc4Cl)[nH]n3)cc2)no1

Kd [1]: 0.0041 µM
IC50 (BaF3 [2]): 0.0096 µM
IC50 (BaF3 [3]): 0.0124 µM
IC50 (BaF3 [4]): 0.166 µM
IC50 (BaF3 [5]): 0.57 µM
IC50 (BaF3 [6]): 1.08 µM
SMILES: CC(C)(C)c1cc(NC(=O)Nc2ccc(-c3cc(-c4ccc(OCCCN5CCOCC5)cc4)[nH]n3)cc2)no1

— ChEMBL document CHEMBL5346912, “Discovery of 3,5-diaryl-1H-pyrazol-based ureas as potent RET inhibitors” (Eur J Med Chem, 2023)
